Reference: patent EP0745599A2, “1-(3-Heterocyclylphenyl)-s-triazine-2,4,6-oxo or thiotrione herbicidal agents” (American Cyanamid Company, priority 1995, dated 1996)

Assays:
Type in all cases: in vivo
Conditions in all cases: rated four to five weeks after treatment
GALIUM APARINE = test: Preemergence herbicidal evaluation, GALAP (Galium)
Text: (§1) Results of herbicide evaluation are expressed on a rating scale (0-9). The scale is based upon a visual observation of plant stand, vigor, malformation, size, chlorosis and overall plant appearance as compared with a control.
(§2) The preemergence herbicidal activity of the test compounds of the present invention is exemplified by the following tests in which the seeds of a variety of monocotyledonous and dicotyledonous plants are separately mixed with potting soil and planted on top of approximately one inch of soil in separate pint cups. After planting, the cups are sprayed with the selected aqueous acetone solution containing test compound in sufficient quantity to provide the equivalent of about 0.125 to 0.50 kg per hectare of test compound per cup. The treated cups are then placed on greenhouse benches, watered and cared for in accordance with conventional greenhouse procedures. From four to five weeks after treatment, the tests are terminated and each cup is examined and rated according to the rating system provided in Example 42.

[1] = test system: ABUTILON THEOPHRASTI, MEDIC.; test: Postemergence herbicidal evaluation, ABUTH (Velvetleaf)
Procedure: In the tests, seedling plants are grown in jiffy flats for about two weeks. The test compounds are dispersed in 50/50 acetone/water mixtures containing 0.5% TWEEN®20, a polyoxyethylene sorbitan monolaurate surfactant of Atlas Chemical Industries, in sufficient quantities to provide the equivalent of about 0.125 kg to 0.500 kg per hectare of active compound when applied to the plants through a spray nozzle operating at 40 psi for a predetermined time. After spraying, the plants are placed on greenhouse benches and are cared for in the usual manner, commensurate with conventional greenhouse practices. From four to five weeks after treatment, the seedling plants are examined and rated according to the rating system set forth below. Where more than one test is involved for a given compound, the data are averaged.
as §1

ZEA MAYS L. = test: Preemergence herbicidal evaluation, ZEAMX (Corn, Field)
Text: as §1, §2

CHENOPODIUM ALBUM, L. = test: Preemergence herbicidal evaluation, CHEAL (Lambsquarters, Common)
Text: as §1, §2

[2] = test system: GLYCINE MAX(L)MERR. CV. WILLIAMS; test: Preemergence herbicidal evaluation, GLXMAW (Soybean, Williams)
Text: as §1, §2

[3] = test system: ORYZA SATIVA, L. TEBONNET; test: Preemergence herbicidal evaluation, ORYSAT (Rice, Tebonnet)
Text: as §1, §2

[4] = test system: TRITICUM AESTIVUM, CV. APOLLO; test: Preemergence herbicidal evaluation, TRZAWO (Wheat, Winter, CV. APOLLO)
Text: as §1, §2

IPOMOEA SPP. = test: Preemergence herbicidal evaluation, IPOSS (Morningglory Spp.)
Text: as §1, §2

[5] = test system: ECHINOCHLOA CRUS-GALLI, (L) BEAU; test: Preemergence herbicidal evaluation, ECHCG (Barnyardgrass)
Text: as §1, §2

[6] = test system: SETARIA VIRIDIS, (L) BEAU; test: Preemergence herbicidal evaluation, SETVI (Foxtail, Green)
Text: as §1, §2

Row | Structure (SMILES) | Herbicide rating (0-9) ABUTH ([1]; 0.125 kg/ha) | Herbicide rating (0-9) ABUTH ([1]; 0.250 kg/ha) | Herbicide rating (0-9) ABUTH ([1]; 0.500 kg/ha) | Herbicide rating (0-9) CHEAL (CHENOPODIUM ALBUM, L.; 0.125 kg/ha) | Herbicide rating (0-9) CHEAL (CHENOPODIUM ALBUM, L.; 0.250 kg/ha) | Herbicide rating (0-9) CHEAL (CHENOPODIUM ALBUM, L.; 0.500 kg/ha) | Herbicide rating (0-9) GLXMAW ([2]; 0.125 kg/ha) | Herbicide rating (0-9) GLXMAW ([2]; 0.250 kg/ha) | Herbicide rating (0-9) GLXMAW ([2]; 0.500 kg/ha) | Herbicide rating (0-9) TRZAWO ([4]; 0.125 kg/ha) | Herbicide rating (0-9) TRZAWO ([4]; 0.250 kg/ha) | Herbicide rating (0-9) TRZAWO ([4]; 0.500 kg/ha) | further results
1 | COC(=O)Cn1c(=O)n(C)c(=O)n(-c2cc(N3C(=O)C4=C(CCCC4)C3=O)c(F)cc2Cl)c1=O [Compound 1, Methyl 3-[2-Chloro-5-(1-cyclohexene-1,2-dicarboximido)-4-fluorophenyl]tetrahydro-5-methyl-2,4,6-trioxo-s-triazine-1(2H)-acetate] | 9.0 | 9.0 | 9.0 | 9.0 | 9.0 | 9.0 | 0.0 | 0.0 | 0.0 | 0.0 | 0.0 | 0.0 | Herbicide rating (0-9) GALAP (GALIUM APARINE; 0.250 kg/ha): 0.0; Herbicide rating (0-9) GALAP (GALIUM APARINE; 0.500 kg/ha): 0.0; Herbicide rating (0-9) ZEAMX (ZEA MAYS L.; 0.125 kg/ha): 0.0; Herbicide rating (0-9) ZEAMX (ZEA MAYS L.; 0.250 kg/ha): 0.0; Herbicide rating (0-9) ZEAMX (ZEA MAYS L.; 0.500 kg/ha): 0.0; Herbicide rating (0-9) ORYSAT ([3]; 0.125 kg/ha): 0.0; Herbicide rating (0-9) ORYSAT ([3]; 0.250 kg/ha): 0.0; Herbicide rating (0-9) ORYSAT ([3]; 0.500 kg/ha): 0.0
2 | Cn1c(=O)n(CC(=O)OC(C)(C)C)c(=O)n(-c2cc(N3C(=O)C4=C(CCCC4)C3=O)c(F)cc2Cl)c1=O [Compound 2, Tert-butyl 3-[2-chloro-5-(1-cyclohexene-1,2-dicarboximido)-4-fluorophenyl]tetrahydro-5-methyl-2,4,6-trioxo-s-triazine-1(2H)-acetate] | 9.0 | 9.0 | 9.0 | 9.0 | 9.0 | 9.0 | 0.0 | 0.0 | 0.0 | 1.0 | 1.0 | 1.0 | Herbicide rating (0-9) IPOSS (IPOMOEA SPP.; 0.125 kg/ha): 6.0; Herbicide rating (0-9) IPOSS (IPOMOEA SPP.; 0.250 kg/ha): 6.0; Herbicide rating (0-9) IPOSS (IPOMOEA SPP.; 0.500 kg/ha): 6.0; Herbicide rating (0-9) ECHCG ([5]; 0.125 kg/ha): 0.0; Herbicide rating (0-9) ECHCG ([5]; 0.250 kg/ha): 0.0; Herbicide rating (0-9) ECHCG ([5]; 0.500 kg/ha): 0.0; Herbicide rating (0-9) SETVI ([6]; 0.125 kg/ha): 0.0; Herbicide rating (0-9) SETVI ([6]; 0.250 kg/ha): 0.0; Herbicide rating (0-9) SETVI ([6]; 0.500 kg/ha): 0.0
